Data taken from patent US7138361B2, “Herbicidal heterocycles” (E. I. du Pont de Nemours and Company, priority 2000, dated 2006).

Legend:
Assay type in all cases: in vivo
Nightshade = assay: Test C preemergence
Sunflower [1] = assay: Test C preemergence; settings: Rate 125 g/ha; scale 0 to 100, 0 no effect, 100 complete control
[2] = system: Surinam grass (Brachiaria decumbens); assay: Test C preemergence
Summary of the method: (§1)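 Preemergence: seeds sown then treated. Postemergence: plants 2–18 cm, 1- to 4-leaf. Both with surfactant-containing solvent formulation; visual injury scored 0–100 after 12–14 d.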

[3] = system: bermudagrass (Cynodon dactylon); assay: Test C preemergence
Summary of the method: as §1

[4] = system: cocklebur (Xanthium strumarium); assay: Test C preemergence
Summary of the method: as §1

corn (Zea mays) = assay: Test C preemergence
Summary of the method: as §1

[5] = system: crabgrass (Digitaria sanguinalis); assay: Test C preemergence
Summary of the method: as §1

[6] = system: giant foxtail (Setaria faberii); assay: Test C preemergence
Summary of the method: as §1

[7] = system: goosegrass (Eleusine indica); assay: Test C preemergence
Summary of the method: as §1

[8] = system: johnsongrass (Sorghum halepense); assay: Test C preemergence
Summary of the method: as §1

kochia (Kochia scoparia) = assay: Test C preemergence
Summary of the method: as §1

[9] = system: lambsquarters (Chenopodium album); assay: Test C preemergence
Summary of the method: as §1

[10] = system: morningglory (Ipomoea hederacea); assay: Test C preemergence
Summary of the method: as §1

[11] = system: pigweed (Amaranthus retroflexus); assay: Test C preemergence
Summary of the method: as §1

soybean (Glycine max) = assay: Test C preemergence
Summary of the method: as §1

[12] = system: velvetleaf (Abutilon theophrasti); assay: Test C preemergence
Summary of the method: as §1

[13] = system: woolly cupgrass (Eriochloa villosa); assay: Test C preemergence
Summary of the method: as §1

[14] = system: yellow nutsedge (Cyperus esculentus); assay: Test C preemergence
Summary of the method: as §1

[15] = system: barnyardgrass (Echinochloa crus-galli); assay: Test C flooded paddy test; settings: for Barnyardgrass plant response rating: Flooded Paddy, scale 0 to 100, 0 no effect, 100 complete control; for Plant response rating, Barnyardgrass: flooded paddy test, scale 0 to 100 (0 no effect, 100 complete control)
Summary of the method: (§2)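 Visual ratings (0 = no effect, 100 = complete control) were made 12–14 days after treatment, relative to greenhouse controls. Plants in the flooded paddy test were rice, smallflower flatsedge, duck salad and barnyardgrass, treated at the 2-leaf stage.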

[16] = system: duck salad (Heteranthera limosa); assay: Test C flooded paddy test; settings: for Ducksalad plant response rating: Flooded Paddy, scale 0 to 100, 0 no effect, 100 complete control; for Plant response rating, Ducksalad: flooded paddy test, scale 0 to 100 (0 no effect, 100 complete control)
Summary of the method: as §2

[17] = system: smallflower flatsedge (Cyperus difformis); assay: Test C flooded paddy test; settings: for Flatsedge plant response rating: Flooded Paddy, scale 0 to 100, 0 no effect, 100 complete control; for Plant response rating, Flatsedge: flooded paddy test, scale 0 to 100 (0 no effect, 100 complete control)
Summary of the method: as §2

Sunflower [18] = assay: Test C preemergence; settings: Rate 500 g/ha, visual evaluation after 12 to 14 days
[19] = Rate 125 g/ha, scale 0 to 100, 0 no effect, 100 complete control
[20] = preemergence, Rate 62 g/ha, scale 0 to 100
[21] = preemergence, Rate 500 g/ha, visual evaluation after 12 to 14 days
[22] = preemergence, Rate 250 g/ha, scale 0 to 100, 0 no effect, 100 complete control

Cc1ccc(N2CCC(n3ccc(C(C)(C)C)n3)C2=O)cc1I (centres unmarked) [Compound 122]
Plant response rating, Nightshade (Nightshade; Rate 62 g/ha, scale 0 to 100): 0
Plant response rating, Nightshade (Nightshade; [19]): 0
Plant response rating, Nightshade (Nightshade; Rate 250 g/ha, scale 0 to 100, 0 no effect, 100 complete control): 30
Plant response rating, Sunflower (Sunflower [1]): 0
Plant response rating, Surinam grass [2, 19]: 0
Plant response rating, Surinam grass [2, 20]: 0
Plant response rating (0 to 100), Surinam grass [2, 21]: 60
Plant response rating, Surinam grass [2, 22]: 20
Plant response rating, Bermudagrass [3, 19]: 100
Plant response rating, Bermudagrass [3, 20]: 100
Plant response rating (0 to 100 where 0 is no effect and 100 is complete control), Bermudagrass [3, 21]: 100
Plant response rating, Bermudagrass [3, 22]: 100
Plant response rating, Cocklebur [4, 19]: 0
Plant response rating, Cocklebur [4, 20]: 0
Plant response rating (0 to 100), Cocklebur [4, 21]: 0
Plant response rating, Cocklebur [4, 22]: 0
Plant response rating, Corn (corn (Zea mays); [19]): 0
Plant response rating, Corn (corn (Zea mays); [20]): 0
Plant response rating (0 to 100), Corn (corn (Zea mays); [21]): 0
Plant response rating, Corn (corn (Zea mays); [22]): 0
Plant response rating, Crabgrass [5, 19]: 100
Plant response rating, Crabgrass [5, 20]: 90
Plant response rating (0 to 100), Crabgrass [5, 21]: 100
Plant response rating, Crabgrass [5, 22]: 100
Plant response rating, Foxtail, Giant [6, 19]: 0
Plant response rating, Foxtail, Giant [6, 20]: 0
Plant response rating (0 to 100), Foxtail, Giant [6, 21]: 0
Plant response rating, Foxtail, Giant [6, 22]: 0
Plant response rating, Goosegrass [7, 19]: 100
Plant response rating, Goosegrass [7, 20]: 90
Plant response rating (0 to 100), Goosegrass [7, 21]: 100
Plant response rating, Goosegrass [7, 22]: 100
Plant response rating, Johnsongrass [8, 19]: 0
Plant response rating, Johnsongrass [8, 20]: 0
Plant response rating (0 to 100), Johnsongrass [8, 21]: 20
Plant response rating, Johnsongrass [8, 22]: 0
Plant response rating, Kochia (kochia (Kochia scoparia); [19]): 100
Plant response rating, Kochia (kochia (Kochia scoparia); [20]): 100
Plant response rating (0 to 100), Kochia (kochia (Kochia scoparia); [21]): 100
Plant response rating, Kochia (kochia (Kochia scoparia); [22]): 100
Plant response rating, Lambsquarters [9, 19]: 100
Plant response rating, Lambsquarters [9, 20]: 100
Plant response rating (0 to 100), Lambsquarters [9, 21]: 100
Plant response rating, Lambsquarters [9, 22]: 100
Plant response rating, Morningglory [10, 19]: 0
Plant response rating, Morningglory [10, 20]: 0
Plant response rating, Morningglory [10, 22]: 100
Plant response rating, Pigweed [11, 19]: 20
Plant response rating, Pigweed [11, 20]: 0
Plant response rating (0 to 100), Pigweed [11, 21]: 100
Plant response rating, Pigweed [11, 22]: 20
Plant response rating, Soybean (soybean (Glycine max); [19]): 0
Plant response rating, Soybean (soybean (Glycine max); [20]): 0
Plant response rating (0 to 100), Soybean (soybean (Glycine max); [21]): 0
Plant response rating, Soybean (soybean (Glycine max); [22]): 0
Plant response rating, Velvetleaf [12, 19]: 10
Plant response rating, Velvetleaf [12, 20]: 0
Plant response rating (0 to 100), Velvetleaf [12, 21]: 20
Plant response rating, Velvetleaf [12, 22]: 20
Plant response rating, Cupgrass, Woolly [13, 19]: 20
Plant response rating, Cupgrass, Woolly [13, 20]: 0
Plant response rating (0 to 100), Cupgrass, Woolly [13, 21]: 100
Plant response rating, Cupgrass, Woolly [13, 22]: 100
Plant response rating, Nutsedge [14, 19]: 0
Plant response rating, Nutsedge [14, 20]: 0
Plant response rating (0 to 100), Nutsedge [14, 21]: 0
Plant response rating, Nutsedge [14, 22]: 0
Barnyardgrass plant response rating ([15]; Rate 250 g/ha): 0
Barnyardgrass plant response rating ([15]; Rate 500 g/ha): 100
Plant response rating, Barnyardgrass ([15]; Rate 62 g/ha): 0
Plant response rating, Barnyardgrass ([15]; Rate 125 g/ha): 0
Ducksalad plant response rating ([16]; Rate 250 g/ha): 30
Ducksalad plant response rating ([16]; Rate 500 g/ha): 60
Plant response rating, Ducksalad ([16]; Rate 62 g/ha): 20
Plant response rating, Ducksalad ([16]; Rate 125 g/ha): 20
Flatsedge plant response rating ([17]; Rate 250 g/ha): 80
Flatsedge plant response rating ([17]; Rate 500 g/ha): 100
Plant response rating, Flatsedge ([17]; Rate 62 g/ha): 0
Plant response rating, Flatsedge ([17]; Rate 125 g/ha): 80
Plant response rating (0 to 100), Sunflower (Sunflower [18]): 30
